Data reported in ChEMBL document CHEMBL5608195, “Identification and biological evaluation of fused tetrahydroisoquinoline derivatives as Wnt/β-catenin signaling inhibitors to suppress colorectal cancer” (Eur J Med Chem, 2024).
Active and inactive are the calls of the source.

Tests used:
[1] = Bioavailability in male ICR (CD-1) mouse at 10 mg/kg, ip measured upto 24 hrs by LC-MS/MS analysis; format: ADME, organism-based; settings: in vivo
[2] = Half life in male ICR (CD-1) mouse at 5 mg/kg, iv measured upto 24 hrs by LC-MS/MS analysis; format: ADME, organism-based; settings: in vivo
HCT-116 [3] = test: Antiproliferative activity against human HCT-116 cells assessed as inhibition rate at 20 uM incubated for 24 hrs by MTT assay relative to control; format: functional
[4] = Half life in male ICR (CD-1) mouse at 20 mg/kg, po measured upto 24 hrs by LC-MS/MS analysis; format: ADME, organism-based; settings: in vivo
[5] = Oral bioavailability in male ICR (CD-1) mouse at 20 mg/kg measured upto 24 hrs by LC-MS/MS analysis; format: ADME, organism-based; settings: in vivo
[6] = Half life in male ICR (CD-1) mouse at 10 mg/kg, ip measured upto 24 hrs by LC-MS/MS analysis; format: ADME, organism-based; settings: in vivo
[7] = Cmax in male ICR (CD-1) mouse at 10 mg/kg, ip measured upto 24 hrs by LC-MS/MS analysis; format: ADME, organism-based; settings: in vivo
[8] = AUC (0 to infinity) in male ICR (CD-1) mouse at 5 mg/kg, iv measured upto 24 hrs by LC-MS/MS analysis; format: ADME, organism-based; settings: in vivo
HCT-116 [9] = test: Inhibition of colony formation in human HCT-116 cells incubated for 24 hrs by crystal violet staining based analysis; format: functional, cell-based; settings: dose 6-10 µM
RKO [10] = test: Inhibition of colony formation human RKO cells incubated for 24 hrs by crystal violet staining based analysis; format: functional, cell-based; settings: dose 6-10 µM
HCT-116 [11] = test: Induction of cell cycle arrest in human HCT-116 cells assessed as accumulation of cells at G2/M phase incubated for 24 hrs by PI staining based flow cytometry; format: functional; settings: dose 6-10 µM
RKO [12] = test: Induction of cell cycle arrest in human RKO cells assessed as accumulation of cells at S phase incubated for 24 hrs by PI staining based flow cytometry; format: functional; settings: dose 6-10 µM
RKO [13] = test: Induction of cell cycle arrest in human RKO cells assessed as accumulation of cells at G2/M phase incubated for 24 hrs by PI staining based flow cytometry; format: functional; settings: dose 6-10 µM
HCT-116 [14] = test: Induction of cell cycle arrest in human HCT-116 cells assessed as downregulation of Cyclin D1 protein level by Western blot analysis; format: functional, cell-based
RKO [15] = test: Induction of cell cycle arrest in human RKO cells assessed as downregulation of Cyclin D1 protein level by Western blot analysis; format: functional, cell-based
HCT-116 [16] = test: Induction of cell cycle arrest in human HCT-116 cells assessed as downregulation of c-Myc protein level by Western blot analysis; format: functional, cell-based
HCT-116 [17] = test: Induction of cell cycle arrest in human HCT-116 cells assessed as downregulation of Cyclin B1 protein level by Western blot analysis; format: functional, cell-based
RKO [18] = test: Induction of cell cycle arrest in human RKO cells assessed as downregulation of Cyclin B1 protein level by Western blot analysis; format: functional, cell-based
RKO [19] = test: Induction of cell cycle arrest in human RKO cells assessed as downregulation of Cyclin A2 protein level by Western blot analysis; format: functional, cell-based
HCT-116 [20] = test: Induction of cell cycle arrest in human HCT-116 cells assessed as upregulation of P21 protein level by Western blot analysis; format: functional, cell-based
RKO [21] = test: Induction of cell cycle arrest in human RKO cells assessed as upregulation of P21 protein level by Western blot analysis; format: functional, cell-based
RKO [22] = test: Inhibition of Wnt/beta-catenin signaling pathway in human RKO cells assessed as downregulation of beta-catenin expression incubated for 24 hrs by qRT-PCR analysis; format: cell-based; settings: dose <= 10.0 µM
HCT-116 [23] = test: Inhibition of Wnt/beta-catenin signaling pathway in human HCT-116 cells assessed as induction of beta-catenin degradation pretreated with cycloheximide followed by compound addition by Western blot analysis; format: cell-based; settings: time <= 6.0 hrs, TDE = time-dependent effect
HCT-116 [24] = test: Inhibition of Wnt/beta-catenin signaling pathway in human HCT-116 cells assessed as induction of beta-catenin degradation in presence of MG132 by Western blot analysis; format: cell-based
RKO [25] = test: Inhibition of Wnt/beta-catenin signaling pathway in human RKO cells assessed as induction of beta-catenin degradation in presence of MG132 by Western blot analysis; format: cell-based
[26] = Binding affinity to recombinant N-terminal GST-tagged human HSP90 (1 to 224 residues) extracted from Escherichia coli BL21 (DE3) cells assessed as dissociation constant by surface plasmon resonance assay
[27] = target: T1, Heat shock protein HSP90 (Homo sapiens) (UniProt P07900+P08238); test: Induction of thermal stabilization of Hsp90 in human HCT-116 cells at 37 to 82 degree C at 100 uM incubated for 1 hr by thermal shift assay; format: cell-based
[28] = target: T1, Heat shock protein HSP90 (Homo sapiens); test: Induction of thermal stabilization of Hsp90 in human RKO cells at 37 to 82 degree C at 100 uM incubated for 1 hr by thermal shift assay; format: cell-based
HCT-116 [29] = test: Antitumor activity against human HCT-116 cells xenografted in male BALB/c mouse assessed as tumor growth inhibition at 10 mg/kg, ip measured every two days for upto 20 days relative to control; format: functional; settings: HCT-116, 480 h, time <= 20 day, read-out: TGI
[30] = Toxicity in male BALB/c mouse xenografted with human HCT-116 cells assessed as effect on serum ALT level at 10 to 40 mg/kg, ip by biochemical analysis; format: organism-based; settings: in vivo, dose 10-40 mg/kg
[31] = Toxicity in male BALB/c mouse xenografted with human HCT-116 cells assessed as effect on serum ALP level at 10 to 40 mg/kg, ip by biochemical analysis; format: organism-based; settings: in vivo, dose 10-40 mg/kg
[32] = Toxicity in male BALB/c mouse xenografted with human HCT-116 cells assessed as effect on serum urea level at 10 to 40 mg/kg, ip by biochemical analysis; format: organism-based; settings: in vivo, dose 10-40 mg/kg
[33] = Toxicity in male BALB/c mouse xenografted with human HCT-116 cells assessed as histological change in lung at 10 to 40 mg/kg, ip by H and E staining based optical microscopic analysis; format: organism-based; settings: in vivo, dose 10-40 mg/kg
[34] = Toxicity in male BALB/c mouse xenografted with human HCT-116 cells assessed as histological change in kidney at 10 to 40 mg/kg, ip by H and E staining based optical microscopic analysis; format: organism-based; settings: in vivo, dose 10-40 mg/kg
[35] = Toxicity in male BALB/c mouse xenografted with human HCT-116 cells assessed as effect on body weight at 10 to 40 mg/kg, ip measured every two days for upto 20 days; format: organism-based; settings: in vivo, 480 h, dose 10-40 mg/kg, time < 20 day
HCT-116 [36] = test: Antitumor activity against human HCT-116 cells xenografted in male BALB/c mouse assessed as decrease in Ki-67 protein level at 10 to 40 mg/kg, ip by Immunohistochemical staining based analysis; format: functional, organism-based; settings: dose 10-40 mg/kg
HCT-116 [37] = test: Inhibition of Hsp90/beta-catenin in human HCT-116 cells at 6 to 10 uM incubated for 24 hrs by co-immunoprecipitation analysis; format: cell-based; settings: dose 6-10 µM
RKO [38] = test: Inhibition of Hsp90/beta-catenin in human RKO cells at 6 to 10 uM incubated for 24 hrs by co-immunoprecipitation analysis; format: cell-based; settings: dose 6-10 µM
[39] = Toxicity in Kunming mouse assessed as behavioural changes at 200 to 400 mg/kg, ip; format: organism-based; settings: in vivo, dose 200-400 mg/kg

CC12c3ccc(Cl)cc3CCN1CCc1c2[nH]c2ccc(Cl)cc12 (centres undefined)
2.6 h: half-life [4]
40%: bioavailability [5]
57.4%: inhibition in vivo at 10 mg/kg (HCT-116 [29])
3.55 h: half-life [6]
89.2%: inhibition at 20 µM (HCT-116 [3])
97%: bioavailability [1]
1.42 h: half-life [2]
active: inhibition (HCT-116 [9]) Dose-Dependent Effect | inhibition (RKO [10]) Dose-Dependent Effect | Activity (HCT-116 [11]) Dose-Dependent Effect | Activity (RKO [12]) Dose-Dependent Effect | Activity (RKO [13]) Dose-Dependent Effect | Activity (HCT-116 [14]) Dose-Dependent Effect | Activity (RKO [15]) Dose-Dependent Effect | Activity (HCT-116 [16]) Dose-Dependent Effect | Activity (HCT-116 [17]) Dose-Dependent Effect | Activity (RKO [18]) Dose-Dependent Effect | Activity (RKO [19]) Dose-Dependent Effect | Activity (HCT-116 [20]) Dose-Dependent Effect | Activity (RKO [21]) Dose-Dependent Effect | inhibition (RKO [22]) Dose-Dependent Effect | inhibition (HCT-116 [23]) Tde | Activity [27] | Activity [28] | Activity (HCT-116 [36]) | inhibition (HCT-116 [37]) Dose-Dependent Effect | inhibition (RKO [38]) Dose-Dependent Effect
1500 ng·h/mL: AUC(0-inf) [8]
1450 ng/mL: Cmax [7]
Non-Toxic: Activity [30] | Activity [31] | Activity [32] | Activity [33] | Activity [34] | Activity [35] | Activity [39]
inactive: inhibition (HCT-116 [24]) | inhibition (RKO [25])
12.2 µM: Kd [26]
